According to patent publication US10703748B2, “Diazanaphthalen-3-yl carboxamides and preparation and use thereof” (Samumed, LLC, priority 2017, dated 2020):

Columns and labels:
[1] = test system: α-smooth muscle actin (aSMA) positive LL29 cells; assay: Inhibition of the fibrotic process: αSMA staining in TGF-β1 treated LL29 fibroblasts from IPF patients; conditions: Homo sapiens, Fibroblast; for EC50: 96 h; for inhibition at 10 µM: read-out: percentage in parentheses after EC50 >10
[2] = test system: SW480 colon carcinoma cells; assay: Cell viability assay (CellTiter-Glo); conditions: Homo sapiens; for EC50: SW480, 96 h; for inhibition at 10 µM: SW480, read-out: percent inhibition at 10 μM
[3] = test system: IL-6; assay: IL-6 inhibition in LPS-stimulated human peripheral blood mononuclear cells (HTRF); conditions: Homo sapiens, PBMC; for EC50: 22 h; for inhibition at 10 µM: read-out: percentage in parentheses after EC50 >10
[4] = molecular target: DYRK1A kinase (Homo sapiens, UniProt Q13627); assay: DYRK1A kinase activity (Ser/Thr 18 peptide Z-lyte FRET assay); type: biochemical; conditions: recombinant DYRK1A, 30 μM ATP, one hour at room temperature;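 further: kinase activity read as coumarin/fluorescein emission ratio after development step, with unphosphorylated and phosphorylated peptide forms setting 0% and 100% controls, values from dose-response curves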
Procedure: Representative compounds were screened using the assay procedure for DYRK1A kinase activity as described below.
Each compound was dissolved in DMSO as a 10 mM stock and used to prepare compound source plates.
This is a non-radioactive assay using fluorescence resonance energy transfer (FRET) between coumarin and fluorescein to detect kinase activity which is represented as a ratio of coumarin emission/fluorescein emission.
The mixture was allowed to incubate with the representative compounds for one hour at room temperature. All reactions were performed in duplicate. Unphosphorylated (“0% Control”) and phosphorylated (“100% control”) forms of Ser/Thr 18 served as control reactions. Additionally, an 11-point dose-response curve of Staurosporine (1 uM top) was run to serve as a positive compound control.
After incubation, Development Reagent A was diluted in Development Buffer then added to the reaction and allowed to further incubate for one hour at room temperature.
Dose-response curves were generated and inhibitory concentration (IC50) values were calculated using non-linear regression curve fit in the Dotmatics' Studies Software (Bishops Stortford, UK).

[5] = molecular target: GSK3β kinase (Homo sapiens, UniProt P49841); assay: GSK3β kinase activity (Ser/Thr 09 peptide Z-lyte FRET assay); type: biochemical; conditions: recombinant kinase, 46 μM ATP, one hour at room temperature; read-out: EC50
[6] = test system: secreted cytokines TNFα, IL-6 and KC-GRO; assay: Secreted cytokines in Lipopolysaccharide-stimulated BV-2 cells (Table 9 does not say which cytokine); type: cell-based, mouse; conditions: Mus musculus, BV-2, 5 h; read-out: EC50
Procedure: BV-2 cells (mouse microglial cells) were cultured in 1:1 DMEM medium supplemented with 10% FBS, and 1% penicillin/streptomycin.
BV-2 cells are plated at 35,000 cells/well in a volume of 100 μl for at least 4 hours before compounds are added. […] Compounds were added to cells overnight. […] Supernatant is removed and saved for further cytokine detection. The original plates with seeded cells were tested for cytotoxicity by measure of adenosine triphosphate (ATP) release by adding CellTiter-Glo® diluted 1:4 in distilled water (G7573, Promega) and transferring lysed cells to a completely black 96-well plate to be read with the Cytation3. Supernatant was then diluted 1:2 with a diluent from V-PLEX cytokine Kit and directly tested for the secreted cytokines TNFα, IL-6 and KC-GRO using electrochemiluminescence (Meso Scale Discovery). The standard curve for each cytokine was used to convert the electrochemiluminescent signal into pg of protein per mL.

[7] = test system: Wnt-responsive Sp5-Luc reporter in SW480 colon carcinoma cells; assay: Screening assay for Wnt activity (Sp5-Luc reporter gene assay); conditions: Homo sapiens; for EC50: SW480; for inhibition at 10 µM: SW480, read-out: percent inhibition at 10 μM

GSK3β kinase, sequence (P49841 whole entry): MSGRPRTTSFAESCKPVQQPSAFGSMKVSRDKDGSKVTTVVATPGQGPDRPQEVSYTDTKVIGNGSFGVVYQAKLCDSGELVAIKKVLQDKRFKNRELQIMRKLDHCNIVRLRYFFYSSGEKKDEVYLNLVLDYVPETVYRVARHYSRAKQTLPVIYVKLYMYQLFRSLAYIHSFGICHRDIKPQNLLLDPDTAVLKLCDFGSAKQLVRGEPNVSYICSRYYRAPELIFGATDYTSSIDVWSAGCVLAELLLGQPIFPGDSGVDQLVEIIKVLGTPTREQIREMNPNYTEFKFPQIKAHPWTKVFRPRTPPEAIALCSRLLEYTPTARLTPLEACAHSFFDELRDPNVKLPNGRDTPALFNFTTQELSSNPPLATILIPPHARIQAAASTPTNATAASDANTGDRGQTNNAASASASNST

SMILES	EC50 [2] [nM]	EC50 [3] [nM]	EC50 [4] [nM]	EC50 [5] [nM]	EC50 [6] [nM]	EC50 [7] [nM]	EC50 [1] [nM]	inhibition at 10 µM [1] [%]	inhibition at 10 µM [3] [%]	inhibition at 10 µM [2] [%]	inhibition at 10 µM [7] [%]
CN1CCN(c2cc(C(=O)Nc3cc4cc(-c5cnn(C)c5N)cnc4cn3)ccn2)CC1 [Compound 3024, N-(3-(5-Amino-1-methyl-1H-pyrazol-4-yl)-1,7-naphthyridin-6-yl)-2-(4-methylpiperazin-1-yl)isonicotinamide]	3370	> 10000	17	> 10000	1200	2610	> 10000	50	11.1	–	–
Cn1ncc(-c2ccc3cnc(NC(=O)c4ccnc(N5CCOCC5)c4)cc3n2)c1CN1CCOCC1 [Compound 314, N-(2-(1-Methyl-5-(morpholinomethyl)-1H-pyrazol-4-yl)-1,6-naphthyridin-7-yl)-2-morpholinoisonicotinamide]	441	> 10000	8	2610	138	368	989	–	47.6	–	–
Nc1cncc(-c2ccc3cnc(NC(=O)c4ccc(OC5CCNCC5)cc4)nc3c2)c1 [Compound 1710, N-(7-(5-Aminopyridin-3-yl)quinazolin-2-yl)-4-(piperidin-4-yloxy)benzamide]	> 10000	> 10000	2	8040	5500	3380	> 10000	10.4	7.2	39.6	–
Cn1cc(-c2ccc3cnc(NC(=O)c4ccc5ccoc5c4)cc3n2)cn1 [Compound 209, N-(2-(1-Methyl-1H-pyrazol-4-yl)-1,6-naphthyridin-7-yl)benzofuran-6-carboxamide]	3150	> 10000	5	> 10000	864	485	436	–	3.1	–	–
CN1CCN(c2cc(C(=O)Nc3ncc4ccc(-c5cnc(N)s5)cc4n3)ccn2)CC1 [Compound 1589, N-(7-(2-aminothiazol-5-yl)quinazolin-2-yl)-2-(4-methylpiperazin-1-yl)isonicotinamide]	331	2880	5	9990	221	184	911	–	–	–	–
Cc1ncc(C(=O)Nc2ncc3ccc(-c4cnc(C)n4C)cc3n2)s1 [Compound 1353, N-(7-(1,2-Dimethyl-1H-imidazol-5-yl)quinazolin-2-yl)-2-methylthiazole-5-carboxamide]	4480	> 10000	11	1350	812	2180	> 10000	42	4.1	–	–
CN1CCC(Oc2cccc(C(=O)Nc3cc4cc(-c5cnco5)ncc4cn3)c2)CC1 [Compound 4218, 3-((1-Methylpiperidin-4-yl)oxy)-N-(6-(oxazol-5-yl)-2,7-naphthyridin-3-yl) benzamide]	5960	> 10000	14	7400	5100	> 10000	2980	–	3.7	–	24.9
CN1CCN(Cc2cccc(C(=O)Nc3ncc4ccc(-c5cnn(C)c5)cc4n3)c2)CC1 [Compound 1079, N-(7-(1-Methyl-1H-pyrazol-4-yl)quinazolin-2-yl)-3-((4-methylpiperazin-1-yl)methyl)benzamide]	3390	> 10000	19	9740	1400	1000	> 10000	14.3	12.7	–	–

The next lines start with results.

EC50 [2] [nM]	EC50 [3] [nM]	EC50 [4] [nM]	EC50 [5] [nM]	EC50 [6] [nM]	EC50 [7] [nM]	SMILES	EC50 [1] [nM]	inhibition at 10 µM [1] [%]	inhibition at 10 µM [3] [%]	inhibition at 10 µM [2] [%]	inhibition at 10 µM [7] [%]
3710	> 10000	11	> 10000	582	3550	Nc1cncc(-c2cnc3cnc(NC(=O)c4ccc(OC5CCNCC5)cc4)cc3c2)c1 [Compound 3524, N-(3-(5-Aminopyridin-3-yl)-1,7-naphthyridin-6-yl)-4-(piperidin-4-yloxy) benzamide]	> 10000	50	5.6	–	–
> 10000	> 10000	5	1470	1000	220	Cn1cc(-c2cc3cc(NC(=O)c4ccc5ccoc5c4)ncc3cn2)cn1 [Compound 3836, N-(6-(1-Methyl-1H-pyrazol-4-yl)-2,7-naphthyridin-3-yl)benzofuran-6-carboxamide]	> 10000	10	1.4	33.9	–
1510	7960	19	665	1700	3420	CN(C)C1CCN(c2cc(C(=O)Nc3cc4nc(-c5cn(C)nn5)ccc4cn3)ccn2)CC1 [Compound 376, 2-(4-(Dimethylamino)piperidin-1-yl)-N-(2-(1-methyl-1H-1,2,3-triazol-4-yl)-1,6-naphthyridin-7-yl)isonicotinamide]	3480	–	–	–	–
3680	3680	2	571	88	498	CN1CCN(c2ccc(C(=O)Nc3cc4nc(-c5cnn(C)c5)ccc4cn3)cn2)CC1 [Compound 151, N-(2-(1-Methyl-1H-pyrazol-4-yl)-1,6-naphthyridin-7-yl)-6-(4-methylpiperazin-1-yl)nicotinamide]	432	–	–	–	–
803	9220	10	8560	≥ 10000	688	Cc1ncc(-c2ccc3cnc(NC(=O)c4ccnc(N5CCN(C)CC5)c4)cc3n2)s1 [Compound 643, 2-(4-Methylpiperazin-1-yl)-N-(2-(2-methylthiazol-5-yl)-1,6-naphthyridin-7-yl)isonicotinamide]	1430	–	–	–	–
3030	> 10000	15	> 10000	960	791	Cn1cc(-c2ccc3cnc(NC(=O)c4ccc5ccoc5c4)nc3c2)cn1 [Compound 1116, N-(7-(1-Methyl-1H-pyrazol-4-yl)quinazolin-2-yl)benzofuran-6-carboxamide]	2720	–	3.8	–	–
2770	> 10000	6	4010	165	585	CN(C)CCNc1cc(C(=O)Nc2cc3nc(-c4cnn(C)c4)ccc3cn2)ccn1 [Compound 164, 2-((2-(Dimethylamino)ethyl)amino)-N-(2-(1-methyl-1H-pyrazol-4-yl)-1,6-naphthyridin-7-yl)isonicotinamide]	717	–	17.6	–	–
> 10000	> 10000	7	> 10000	420	> 10000	CN1CCC(Oc2cccc(C(=O)Nc3cc4cc(-c5cnco5)cnc4cn3)c2)CC1 [Compound 3311, 3-((1-Methylpiperidin-4-yl)oxy)-N-(3-(oxazol-5-yl)-1,7-naphthyridin-6-yl) benzamide]	1440	–	5.8	5.4	4.9
9310	> 10000	9	> 10000	300	686	CN1CCc2ccc(C(=O)Nc3cc4nc(-c5cnn(C)c5)ccc4cn3)cc2C1 [Compound 202, 2-Methyl-N-(2-(1-methyl-1H-pyrazol-4-yl)-1,6-naphthyridin-7-yl)-1,2,3,4-tetrahydroisoquinoline-7-carboxamide]	530	–	5.1	–	–
> 10000	> 10000	6	> 10000	≥ 10000	> 10000	O=C(Nc1cc2cc(-c3cncc(NC4CCNCC4)n3)cnc2cn1)C1CCOCC1 [Compound 3597, N-(3-(6-(Piperidin-4-ylamino)pyrazin-2-yl)-1,7-naphthyridin-6-yl) tetrahydro-2H-pyran-4-carboxamide]	> 10000	7.7	0	8.1	7.6
2670	> 10000	27	7820	275	3830	Cc1cn2c(n1)CN(C(=O)Nc1cc3cc(-c4cnco4)cnc3cn1)CC2 [Compound 4615]	> 10000	35.6	5.8	–	–
9640	> 10000	10	397	972	> 10000	CN1CCN(c2cc(C(=O)Nc3cc4cc(-c5cnn(C)c5)ncc4cn3)ccn2)CC1 [Compound 3774, N-(6-(1-Methyl-1H-pyrazol-4-yl)-2,7-naphthyridin-3-yl)-2-(4-methylpiperazin-1-yl)isonicotinamide]	5860	–	10.8	–	54.7
